Results reported in patent US9150887B2, “Ethanologenic bacteria with increased resistance to furfural” (UNIVERSITY OF FLORIDA RESEARCH FOUNDATION, INC., priority 2009, dated 2015).
In brackets after ≈: the same amount, converted by molar mass. Entries after “also recorded” stand apart in the source; their conditions may differ. Where two headings read alike, the source gives them in different places.

Experiments:
LY180 [1] = test: Furfural toxicity (MIC) in tube cultures; assay type: cell-based, Escherichia coli; settings: for MIC: other compounds of hemicellulose hydrolysates, data not shown
Experimental: (§1) Cultures were inoculated to an initial density of 17 mg dcw liter^−1. Cell mass was measured after incubation at 37° C. for 24 h and 48 h.

EMFR9 [2] = test: Furfural toxicity (MIC) in tube cultures; assay type: cell-based, Escherichia coli; settings: for MIC: other compounds of hemicellulose hydrolysates, data not shown
Experimental: as §1

yqhD promoter [3] = test: Luciferase reporter activity from the yqhD promoter in EMFR17; assay type: cell-based, Escherichia coli; settings: EMFR17 with pPyqhD-luc; furfural addition
Experimental: (§2) Cultures of E. coli carrying appropriate reporter plasmids were grown in AM1-5% xylose to OD 0.2-0.4. After addition of furfural, cells were pelleted, resuspended in Qiagen Qproteome bacterial lysis buffer, and stored at −80° C. The lysates were thawed at 37° C. for 2 minutes, and transferred to a white 96-well plate. An equal volume (50 uL) of PerkinElmer BriteLite reagent was added to each well, and the luminescence measured in a Promega Glomax 96-well luminometer.

LY180 [4] = test: Furfural reduction in vivo during fermentation; assay type: cell-based, Escherichia coli; settings: furfural 0.5 g liter^−1
Experimental: (§3) Cultures grown to a cell density of […] in fleakers containing 350 mL AM1-10% xylose medium were sampled immediately before and 15, 30, and 60 minutes after addition of furfural to 0.5 g/L. The residual furfural concentration in the culture was determined after removal of bacterial cells by centrifugation. A spectrophotometric method was used, as described previously.
(§4) Cultures were grown to a cell density of 0.66 g dcw liter^−1 in fleakers containing 350 mL AM1-100 g liter^−1 xylose medium and sampled immediately before and 15, 30, and 60 minutes after addition of furfural (to 0.5 g liter^−1) as previously described (Miller et al. 2009 Appl. Environ. Microbiol. 75:4315-4323). Residual furfural was measured in the culture broth after centrifugation using a spectrophotometric method (Martinez et al. 2000 Biotechnol. Prog. 16: 637-641).

LY180ΔyqhC = test: Furfural reduction in vivo during fermentation; assay type: cell-based, Escherichia coli; settings: furfural 0.5 g liter^−1
Experimental: as §3, §4

yqhD promoter [5] = test: Luciferase reporter activity from the yqhD promoter in EMFR9; assay type: cell-based, Escherichia coli; settings: EMFR9 with yqhD promoter reporter plasmid; furfural addition
Experimental: as §2
(§5) Cultures of E. coli carrying appropriate reporter plasmids were grown in AM1-50 g liter^−1 xylose to OD 0.4. After sampling the cultures, furfural was added, and incubation continued for 5, 15 or 30 min before sampling again. Untreated and furfural-treated cells were pelleted, resuspended in Qiagen Qproteome bacterial lysis buffer, and stored at −80° C. The lysates were thawed at 37° C. for 2 minutes, and transferred to a 96-well plate (white). An equal volume (50 μL) of PerkinElmer BriteLite reagent was added to each well. Luminescence was measured using a Promega Glomax 96-well luminometer.

yqhD promoter [6] = test: Luciferase reporter activity from the yqhD promoter in LY180ΔyqhC; assay type: cell-based, Escherichia coli; settings: yqhC deletion strain with pLOI4900; furfural addition
Experimental: as §2
(§6) Plasmid pLOI4900 was constructed by transferring the firefly luciferase gene into pBAD24 (Guzman et al. 1995 J. Bacteriol. 177: 4121-4130), and then replacing the araC gene and pBAD promoter regions with a 150-bp region upstream from the yqhD gene in LY180. This putative yqhD promoter region was PCR amplified using primers PCT6 and PCT7 (Table 2).
Cultures of E. coli carrying appropriate reporter plasmids were grown in AM1-50 g liter^−1 xylose to OD 0.4. After sampling the cultures, furfural was added, and incubation continued for 5, 15 or 30 min before sampling again. Untreated and furfural-treated cells were pelleted, resuspended in Qiagen Qproteome bacterial lysis buffer, and stored at −80° C. The lysates were thawed at 37° C. for 2 minutes, and transferred to a 96-well plate (white). […] Luminescence was measured using a Promega Glomax 96-well luminometer.

LY180 [7] = test: Furfural resistance and metabolism during pH-controlled fermentation; assay type: cell-based, Escherichia coli
Experimental: (§7) Furfural resistance was compared in small fermenters (37° C., 150 rpm, pH 6.5, 350-ml working volume) using AM1 medium (Martinez et al. 2007 Biotechnol. Lett. 29:397-404) containing 100 g liter^−1 xylose. Seed cultures were inoculated to approximately 33 mg dcw liter^−1. Samples were removed periodically to measure cell mass, ethanol, and furfural.

EMFR9 [8] = test: as above; assay type: cell-based, Escherichia coli
Experimental: as §7

yqhD promoter [9] = test: Luciferase reporter activity from the yqhD promoter in LY180; assay type: cell-based, Escherichia coli
Experimental: as §2, §6, §5

[10] = system: yqhC, yqhD and dkgA transcripts in LY180; test: Microarray analysis of transcripts after furfural addition; assay type: cell-based, Escherichia coli; settings: 15 min after 0.5 g liter^−1 furfural
Experimental: For each strain, 4 replicate 350 ml cultures were grown to OD=[…] (0.66 g dcw liter^−1) and sampled. Furfural (0.5 g liter^−1) was added and samples were removed after 15 minutes of incubation. Culture samples were cooled in a dry ice/ethanol bath. Cells were pelleted at 4° C., resuspended in RNA Later (Qiagen), and stored at −80° C. Cell pellets from the 4 fermentors were pooled and used for RNA isolation (Qiagen RNeasy Mini Kit). RNA was treated with DNase, re-purified, and assessed for quality using an Agilent Bioanalyzer. RNA samples were submitted to Nimblegen for conversion to cDNA, labeling with Cy3, and hybridization to the E. coli K12 TI8333 microarray chip. This chip contains 385,000 60-mer probes derived from E. coli K12 strain MG1655, and has 5 replicates of each probe with an average of 18 probes per gene. Normalized expression data from Nimblegen was imported into ArrayStar (DNA Star) for analysis.

YqhD [11] = target: T1, YqhD (Escherichia coli, UniProt Q46856); parameters: For-[…]; His-tag (N); made in house; host or cells: E. coli BL21 (DE3); settings: Miller et al. 2009b; read-out: apparent Km for NADPH; cited from earlier work
T1 sequence (Q46856 1-387): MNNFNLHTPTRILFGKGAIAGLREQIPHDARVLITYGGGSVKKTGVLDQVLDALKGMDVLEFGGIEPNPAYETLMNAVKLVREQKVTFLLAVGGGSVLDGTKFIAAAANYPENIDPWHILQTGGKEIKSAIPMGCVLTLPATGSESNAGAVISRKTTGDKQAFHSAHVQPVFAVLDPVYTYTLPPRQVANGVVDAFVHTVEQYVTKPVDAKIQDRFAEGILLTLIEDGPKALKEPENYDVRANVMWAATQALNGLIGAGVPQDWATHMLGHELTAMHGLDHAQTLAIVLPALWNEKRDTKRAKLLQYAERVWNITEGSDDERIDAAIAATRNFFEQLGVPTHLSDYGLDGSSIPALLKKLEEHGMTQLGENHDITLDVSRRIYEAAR

DkgA [12] = target: T2, DkgA (Escherichia coli, UniProt Q46857); test: Kinetic analysis of purified His-tagged DkgA; assay type: biochemical; settings: purified enzyme, with furfural; read-out: apparent Km for NADPH
T2 construct: For-[…]; His-tag (N); made in house; host or cells: E. coli BL21 (DE3)
T2 sequence (Q46857 whole entry): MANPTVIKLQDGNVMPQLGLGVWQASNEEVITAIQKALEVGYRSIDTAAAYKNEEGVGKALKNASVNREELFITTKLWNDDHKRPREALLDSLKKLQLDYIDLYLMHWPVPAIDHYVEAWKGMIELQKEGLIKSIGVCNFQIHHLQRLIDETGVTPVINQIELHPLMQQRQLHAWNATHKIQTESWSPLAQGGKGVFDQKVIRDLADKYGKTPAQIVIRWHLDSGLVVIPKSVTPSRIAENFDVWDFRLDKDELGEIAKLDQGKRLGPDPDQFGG
Experimental: Both the yqhD and dkgA genes were cloned into a Novagen pET-15b vector and expressed as a His-tagged protein in E. coli BL21 (DE3). Cells were grown with IPTG to approximately 1.3 g dcw liter^−1, washed with 100 mM phosphate buffer, and lysed using MP Fast Prep-24 (MP Biomedical, Solon Ohio) and Lysing Matrix B. Crude extracts were passed through a 0.22 μm PVDF filter and further purified using a 1 mL HiTrap nickel column. Purified enzymes were dialyzed in 100 mM phosphate buffer using a Thermo Slide-A-Lyser and quantified using a Thermo BCA Protein Assay Kit. Purity of YqhD and DkgA were estimated to be greater than 90% by SDS-PAGE. […] Estimated sizes of the purified proteins were in agreement with predicted values of 43 kD and 31 kD, respectively. Apparent Kcat and apparent Km values were determined for both purified enzymes using NADPH and furfural.

YqhD [13] = target: T1, YqhD; test: Kinetic analysis of purified His-tagged YqhD; settings: read-out: apparent Km for NADPH; purified enzyme, with furfural
Experimental: (§9) Cells were grown with IPTG to approximately 1.3 g dcw liter^−1, washed with 100 mM phosphate buffer, and lysed using MP Fast Prep-24 (MP Biomedical, Solon Ohio) and Lysing Matrix B. Crude extracts were passed through a 0.22 μm PVDF filter and further purified using a 1 mL HiTrap nickel column. Purified enzymes were dialyzed in 100 mM phosphate buffer using a Thermo Slide-A-Lyser and quantified using a Thermo BCA Protein Assay Kit. […] Apparent Kcat and apparent Km values were determined for both purified enzymes using NADPH and furfural.

DkgA [14] = target: T2, DkgA; settings: Miller et al. 2009b; read-out: apparent Km for NADPH; cited from earlier work
LY180 [15] = test: 5-HMF tolerance in tube cultures with cysteine supplement; assay type: cell-based, Escherichia coli
Experimental: Tolerance to 5-HMF was tested using 13×100 mm closed tubes containing 4 ml AM1 and 5-HMF as indicated. When appropriate, antibiotics were included for plasmid maintenance. Tubes were inoculated to an initial density of 0.05 OD550 nm. […] To examine the effects of pntAB on furan tolerance, a multiwall plate containing 400 μl of AM1 (and 5-HMF or furfural) per well was inoculated as above. OD(420-580 nm bandwidth) was measured for 72 h using a Bioscreen C growth analyzer (Oy Growth Curves, Helsinki, Finland).

LY180 [16] = test: Effect of 5-HMF on anaerobic growth and fermentation; assay type: cell-based, Escherichia coli; settings: 1.0 g l^−1 5-HMF; 100 g l^−1 xylose
Experimental: (§8) For fermentation experiments, seed cultures of LY180 and EMFR9 were grown overnight in small fermentors (37° C., 200 rpm) containing 350 ml of AM1 medium. Broth was maintained at pH 6.5 by the automatic addition of 2 N KOH. Upon reaching mid-log phase, experimental fermenters were inoculated to an initial cell density of 0.1 OD550 nm. (33 mg dry cell weight l^−1). Cell mass (OD550 nm) and furan levels were monitored at 12-h intervals as described previously (Martinez et al. 2000b Biotechnol Prog 16: 637-641).

EMFR9 [17] = test: as above; assay type: cell-based, Escherichia coli
Experimental: as §8

[18] = substrate: O=Cc1ccco1; test: cells, lysate or membranes named; settings: other: purified enzyme, NADPH-dependent reduction
Experimental: as §9

[19] = mineral salts media with 50 g liter^−1 xylose, 48 h
[20] = xylose-mineral salts medium with yeast extract (1.0 g liter^−1)

O=Cc1ccco1 [furfural]
minimal inhibitory concentration (MIC) of furfural (LY180 [1]; [19]): approximately 1.0 g liter^−1
furfural MIC (LY180 [1]; xylose replaced with glucose): 1500 µg/mL
furfural MIC (LY180 [1]; [20]): 2000 µg/mL
minimal inhibitory concentration (MIC) of furfural (EMFR9 [2]; [19]): ~2000 µg/mL
furfural MIC (EMFR9 [2]; xylose replaced with glucose): 2500 µg/mL
furfural MIC (EMFR9 [2]; [20]): 2500 µg/mL
effect on luciferase expression (yqhD promoter [3]): luciferase expression was not increased
in vivo rate of furfural reduction (LY180 [4]): 0.042±0.001 μmol min^−1 mg dcw^−1
in vivo rate of furfural reduction (LY180ΔyqhC): 0.025±0.005 μmol min^−1 mg dcw^−1
effect on luciferase expression (yqhD promoter [5]): luciferase expression was not increased; also recorded: did not increase luciferase activity
effect on luciferase activity (yqhD promoter [6]): no furfural-dependent response was observed
effect on growth and ethanol production (LY180 [7]; 0.4 g liter^−1 furfural, 100 g liter^−1 xylose): initial lag in growth and ethanol production
effect on growth and ethanol production (LY180 [7]; 1.0 liter^−1 furfural, 72-h incubation): strongly inhibited
time to complete reduction of furfural (EMFR9 [8]; 0.4 g liter^−1 furfural): 12 h
time to complete reduction of furfural (EMFR9 [8]; 1.0 g liter^−1 furfural): 18 h
effect on growth and fermentation (EMFR9 [8]; furfural 0.4 g liter^−1 or 1.0 g liter^−1): virtually unaffected
effect on luciferase activity (yqhD promoter [9]; LY180(pLOI4900), furfural 1 mM, 5 mM and 10 mM, evident within 5 min): dose-dependent increase in luciferase activity
effect on luciferase activity (yqhD promoter [9]; LY180 carrying pPyqhD-luc, 15 minutes after addition of furfural): activity was increased
up-regulation of yqhC, yqhD and dkgA transcripts [10]: > 6 fold

CC(=O)C=O [Methylglyoxal]
effect on luciferase activity (yqhD promoter [9]; LY180(pLOI4900), 0.1 mM): increase luciferase activity

NADPH
Km (YqhD [11]): 8 µM
Km (DkgA [12]): 23 µM
Km (YqhD [13]): 8 µM
Km (DkgA [14]): 23 µM

OCc1ccco1 [furfuryl alcohol]
MIC (LY180 [1]): 15000 µg/mL (≈ 153 mM)
MIC (EMFR9 [2]): 15000 µg/mL (≈ 153 mM)

O=Cc1ccc(CO)o1 [5-HMF, 5-hydroxymethyl furfural]
effect on growth (LY180 [15]; 1 g l^−1 5-HMF, tube cultures, 24 h): partially inhibited
effect on growth (LY180 [16]): completely inhibited
effect on cell yield or ethanol yield (EMFR9 [17]; 1.0 g l^−1 5-HMF): no detrimental effect
effect on ethanol production and growth (EMFR9 [17]; 2.5 g 5-HMF l^−1): slowed
time to completion of ethanol production and growth (EMFR9 [17]; 2.5 g 5-HMF l^−1): 96 h

COc1cc(C=O)cc(OC)c1O [syringaldehyde]
MIC (LY180 [1]): 2000 µg/mL (≈ 11 mM)
MIC (EMFR9 [2]): 2000 µg/mL (≈ 11 mM)

N[C@@H](CS)C(=O)O [cysteine, L-cysteine]
restoration of growth by supplement (LY180 [15]; 100 μM cysteine with 1 g l^−1 5-HMF): completely restored
restoration of growth by supplement (LY180 [15]; 100 μM or 1000 μM cysteine with 2.5 g l^−1 5-HMF): not restored
effect of supplement on the MIC for 5-HMF (LY180 [15]; cysteine supplements): did not increase the MIC

B1: YqhD (Escherichia coli K-12) (protein)
chain: MNNFNLHTPTRILFGKGAIAGLREQIPHDARVLITYGGGSVKKTGVLDQVLDALKGMDVLEFGGIEPNPAYETLMNAVKLVREQKVTFLLAVGGGSVLDGTKFIAAAANYPENIDPWHILQTGGKEIKSAIPMGCVLTLPATGSESNAGAVISRKTTGDKQAFHSAHVQPVFAVLDPVYTYTLPPRQVANGVVDAFVHTVEQYVTKPVDAKIQDRFAEGILLTLIEDGPKALKEPENYDVRANVMWAATQALNGLIGAGVPQDWATHMLGHELTAMHGLDHAQTLAIVLPALWNEKRDTKRAKLLQYAERVWNITEGSDDERIDAAIAATRNFFEQLGVPTHLSDYGLDGSSIPALLKKLEEHGMTQLGENHDITLDVSRRIYEAAR
Km [18]: 9000 µM
